These results are taken from US20100234395A1, “UREIDE DERIVATIVE AND PHARMACEUTICAL APPLICATION THEREOF” (TORAY INDUSTRIES, INC., priority 2006, published 2010).

Usually IC50 stands for the concentration that gives 50% inhibition.

Each structure is given as a SMILES string. Read-outs that look alike come from different tables or passages of the source. Some results are limits rather than exact numbers.

The subject of test [1] is ddY mice. Put plainly: Acetic acid writhing test in mice (analgesic effects). The class given is in vivo. Particulars: for ED50: Mus musculus. On the procedure:
ddY mice were grown for at least 16 hours under fasting conditions while free water intake was allowed, and a solution of the test compound or a solvent was orally administered thereto (0.1 ml/10 g). As a solvent for a solution of the test compound, dimethyl sulfoxide (DMSO):Tween 80:27% hydroxypropyl-P-cyclodextrin (hereafter abbreviated to “HP-β-CD”) (1:1:8) or 27% HP-β-CD was used. A solution of 0.6% acetic acid (0.1 ml/10 g) was administered intraperitoneally 45 minutes after administration to induce a writhing reaction (i.e., a movement of stretching or arching the body). The number of the writhing reactions that had occurred for the period from 10 minutes after administration of the acetic acid solution to 10 minutes thereafter was counted, and the number of times was designated as an indicator of pain. The number of times of reactions in the group to which a solvent had been administered was designated as 100%, and the concentration of the test compound that had inhibited 50% of such reaction was designated as the ED50 value.
The compound of Reference Example 78 is disclosed in the claims of JP Patent Publication (kohyo) No. 2006-517535 A, the compounds of Reference Examples 93 and 199 are disclosed in the claims of JP Patent No. 3003148, and the compound of Reference Example 103 is disclosed in the claims of JP Patent Publication (kohyo) No. 2006-514095 A. Thus, these compounds were compared with the compounds of the present invention having similar structures in terms of analgesic effects with oral administration (Table 4) or subcutaneous administration (Table 5). Dimethyl sulfoxide (DMSO):Tween 80:27% HP-β-CD (1:1:8) or 27% HP-β-CD was used as a solvent for the test compound.

In test [2] the target is T1, COX-2 (Homo sapiens, UniProt P35354).
T1 construct: Human blood that had been sampled with the use of heparin (19 units/ml) was used; from tissue; host or cells: human whole blood (heparinised), aspirin-pretreated, stimulated with lipopolysaccharide
T1 sequence (P35354 18-604): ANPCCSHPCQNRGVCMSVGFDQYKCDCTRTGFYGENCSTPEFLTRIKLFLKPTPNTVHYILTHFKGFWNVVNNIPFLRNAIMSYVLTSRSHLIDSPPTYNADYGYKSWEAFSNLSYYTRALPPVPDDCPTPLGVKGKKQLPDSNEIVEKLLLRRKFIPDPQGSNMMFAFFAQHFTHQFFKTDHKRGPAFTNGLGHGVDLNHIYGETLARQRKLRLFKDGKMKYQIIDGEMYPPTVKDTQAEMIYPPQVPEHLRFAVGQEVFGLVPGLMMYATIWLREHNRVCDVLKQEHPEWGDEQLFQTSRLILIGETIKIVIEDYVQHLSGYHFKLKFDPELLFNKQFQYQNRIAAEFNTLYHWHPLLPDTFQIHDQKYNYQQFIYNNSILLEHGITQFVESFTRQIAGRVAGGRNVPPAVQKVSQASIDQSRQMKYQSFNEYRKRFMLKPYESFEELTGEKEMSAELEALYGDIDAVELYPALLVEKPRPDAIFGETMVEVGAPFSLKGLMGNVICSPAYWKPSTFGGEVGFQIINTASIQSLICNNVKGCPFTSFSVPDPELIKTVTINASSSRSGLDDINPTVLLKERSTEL
Briefly: Activity of inhibiting COX-2 in human blood (prostaglandin E2 after lipopolysaccharide). It counts as cell-based. Particulars: prostaglandin E2 production. On the procedure: Human blood that had been sampled with the use of heparin (19 units/ml) was used. Blood was fractionated to reaction tubes in amounts of 500 μl, aspirin (12 μg/ml) was added thereto, and the resultants were incubated at 37° C. for 6 hours. Thereafter, the test compound or solvent, and lipopolysaccharide (10 μg/ml) were added, and the reaction was allowed to proceed for 18 hours. After the completion of the reaction, the supernatant (blood plasma) was recovered via centrifugation at 4° C., and the amount of prostaglandin E2 in the plasma was quantified using a kit (514010, Cayman Chemical). Dimethyl sulfoxide (DMSO) was used as a solvent for the test compound. The amount of prostaglandin E2 produced via the addition of lipopolysaccharide was designated as 100%, and the concentration of the test compound that inhibits 50% of such reaction was represented by the IC50 value.

Test [3] has as its target T2, COX-1 (Homo sapiens, UniProt P23219).
T2 construct: Human blood that had been sampled with the use of heparin (19 units/ml) was used; from tissue; host or cells: human whole blood (heparinised)
Put plainly: Activity of inhibiting COX-1 in human blood (thromboxane B2 after ionomycin). The class given is cell-based. The settings on record: thromboxane B2 production. How it is done:
Human blood that had been sampled with the use of heparin (19 units/ml) was used. Blood was fractionated to reaction tubes in amounts of 500 μl, the test compound or solvent was added thereto, and the resultants were incubated at 37° C. for 60 minutes. Dimethyl sulfoxide (DMSO) was used as a solvent for the test compound. Thereafter, ionomycin (30 nM) was added, and the reaction was allowed to proceed for 30 minutes. After the completion of the reaction, the supernatant (blood plasma) was recovered via centrifugation at 4° C., and the amount of thromboxane B2 in the plasma was quantified using a kit (519031, Cayman Chemical). The amount of thromboxane B2 produced via the addition of ionomycin was designated as 100%, and the concentration of the test compound that inhibits 50% of such reaction was represented by the IC50 value.

Test [4] relates to ICR mice. Put plainly: Partial sciatic nerve ligation model in mice (Seltzer model), von Frey test. Particulars: 7 days after ligation, FIG. 1. It counts as in vivo. On the procedure: Analgesic effects of the compound of the present invention were evaluated using the partial sciatic nerve ligation model (Seltzer models) in mice, with which neuropathic pain can be evaluated.
Models of neuropathic pain were prepared in accordance with the method of Seltzer et al. ICR mice (5-week-old, male) were put under anesthesia with sodium pentobarbital (70 mg/kg, i.p.) to expose the sciatic nerve of the femoral region of the right posterior limb, and half of the sciatic nerve was strongly and triply ligated using 8-0 silk yarn (Natsume Seisakusho, Co., Ltd.) under a microscope (this group is designated as the “ligation group”). The group that had been subjected to exposure of the sciatic nerve without ligation was designated as a sciatic nerve control group (i.e., the “sham group”). […] The von Frey tests were performed 1 hour, 2 hours, and 3 hours after the oral administration for determining the pre-values prior to the administration of the test substances, which took place 7 days after the ligation surgery of sciatic nerve, and such values were designated as the indicators of analgesic effects. Gabapentin (30 mg/kg, po) was used as a positive control. As a solvent for the test compound, 27% HP—P—CD was used.
The obtained data were processed by performing a paired t-test amongst several groups and correcting the data via Dunnett's method.
The compound of Reference Example 78 is disclosed in the claims of JP Patent Publication (kohyo) No. 2006-517535 A, the compounds of Reference Example 93 and Reference Example 199 are disclosed in the claims of JP Patent No. 3003148, and the compound of Reference Example 103 is disclosed in the claims of JP Patent Publication (kohyo) No. 2006-514095 A. Accordingly, sulfate of Reference Example 78, toluenesulfonate of Reference Example 93, the free compound of Reference Example 199, and sulfate of Reference Example 103 were used as test compounds and evaluated using mouse models of partial sciatic nerve ligation, which were similar to those used in Example 79. 27% HP-β-CD was used as a solvent for the test compounds.

In test [5] the test system is ddY mice. Put plainly: Formalin test in mice. The class given is in vivo. Particulars: oral 10 mg/kg, FIG. 2. How it is done:
ddY mice were grown for at least 16 hours under fasting conditions while free water intake was allowed, and a solution of the test compound or a solvent was orally administered thereto (0.1 ml/10 g). As a solvent for a solution of the test compound, 27% HP-β-CD was used. Thirty minutes after administration, 20 μl of a 2.5% formalin solution was subcutaneously administered to the ichnograms of right posterior legs of mice to induce a movement of licking. A movement of mice to lick the treated legs was designated as an indicator of pain, and the licking time was measured at 5-minute intervals for 30 minutes. The reaction that had occurred within 10 minutes immediately after administration of the formalin solution was designated as the phase I reaction, and the reaction that had occurred 10 to 30 minutes after administration was designated as the phase II reaction.

Setting [6] is: oral administration 45 minutes before 0.6% acetic acid i.p., 50% inhibition of writhing reactions, read-out: ED50 (mg/kg)[90% confidence limit].

T2 sequence (P23219 24-599): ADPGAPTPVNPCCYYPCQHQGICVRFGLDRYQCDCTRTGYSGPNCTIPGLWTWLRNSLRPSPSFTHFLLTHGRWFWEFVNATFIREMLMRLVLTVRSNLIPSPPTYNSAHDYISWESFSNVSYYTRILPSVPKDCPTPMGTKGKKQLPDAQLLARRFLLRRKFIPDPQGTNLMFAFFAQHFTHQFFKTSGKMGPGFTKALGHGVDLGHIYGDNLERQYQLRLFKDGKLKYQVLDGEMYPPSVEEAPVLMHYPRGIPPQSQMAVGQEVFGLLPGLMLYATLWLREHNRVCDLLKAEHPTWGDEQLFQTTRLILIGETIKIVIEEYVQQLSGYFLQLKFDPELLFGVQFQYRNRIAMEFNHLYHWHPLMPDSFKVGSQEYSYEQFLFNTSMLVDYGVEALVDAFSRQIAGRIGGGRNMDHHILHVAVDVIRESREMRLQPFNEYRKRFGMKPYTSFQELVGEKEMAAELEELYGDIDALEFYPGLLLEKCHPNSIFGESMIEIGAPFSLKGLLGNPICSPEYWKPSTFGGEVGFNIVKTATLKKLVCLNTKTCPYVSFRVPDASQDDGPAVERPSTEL

As to `COc1ccc(-c2nc(C3CCN(C(=O)N(C)O)CC3)oc2-c2ccc(F)cc2)cc1` [Example 9, 4-(5-(4-Fluorophenyl)-4-(4-methoxyphenyl)oxazol-2-yl)-1-(N-hydroxy-N-methylcarbamoyl)-piperidine], the ED50 in test [1] (setting [6]) was found to be 2.63 mg/kg. The half-maximal inhibitory concentration (IC50) in test [2] is greater than 10 µM; in test [3], less than 100 nM.

For the compound `COc1ccc(-c2oc(C3CCN(C(=O)N(C)O)CC3)nc2-c2ccc(C)cc2)cc1` [Example 4, 4-(5-(4-Methoxyphenyl)-4-(4-tolyl)oxazol-2-yl)-1-(N-hydroxy-N-methylcarbamoyl)piperidine], the ED50 in test [1] (setting [6]) was 4.02 mg/kg. The IC50 in test [2] was greater than 10 µM; in test [3] it was less than 100 nM.

For `COc1ccc(-c2nc(C3CCN(C(=O)N(C)O)CC3)oc2-c2ccc(C)cc2)cc1` [Example 7, 4-(4-(4-Methoxyphenyl)-5-(4-tolyl)oxazol-2-yl)-1-(N-hydroxy-N-methylcarbamoyl)piperidine], the ED50 in test [1] (setting [6]) was 3.27 mg/kg. The IC50 in test [2] is greater than 10 µM; in test [3] it was less than 100 nM.

Take `COc1ccc(-c2nc(C3(C#N)CCN(C(=O)N(C)O)CC3)sc2-c2ccc(OC)cc2)cc1` [Example 56, 4-(4,5-Bis(4-methoxyphenyl)thiazol-2-yl)-4-cyano-1-(N-hydroxy-N-methylcarbamoyl)piperidine]: the ED50 in test [1] (setting [6]) came out at 4.61 mg/kg. Also, the concentration for half-maximal inhibition (IC50) in test [2] was greater than 10 µM; in test [3] it was less than 100 nM.

For the compound `COc1ccc(-c2nc(C3(C#N)CCN(C(=O)N(C)O)CC3)oc2-c2ccc(OC)cc2)cc1` [Example 47, 4-(4,5-Bis(4-methoxyphenyl)oxazol-2-yl)-4-cyano-1-(N-hydroxy-N-methylcarbamoyl)piperidine], the ED50 in test [1] (setting [6]) amounted to 3.3 mg/kg. Further, the IC50 is greater than 10 µM in test [2] and less than 100 nM in test [3].

For `COc1ccc(-c2cc(C3CCN(C(=O)N(C)O)CC3)nn2-c2ccc(OC)cc2)cc1` [Example 40, 4-(1,5-Bis(4-methoxyphenyl)-1H-pyrazol-3-yl)-1-(N-hydroxy-N-methylcarbamoyl)piperidine], the ED50 turned out to be 2.47 mg/kg in test [1] (sc, Table 5, subcutaneous administration, read-out: ED50 (mg/kg) [90% confidence limit]) and 1.64 mg/kg in test [1] (setting [6]). Further, the “activity ratio (analgesic effects)” value in test [1] (subcutaneous administration, compared with Reference Example 103 (sulfate)) was “at least 40 times”. Also, the “results of the von Frey test” value in test [4] (oral administration of 3 and 10 mg/kg of Example 27 and Example 40, respectively) was “significantly improved”. The 50% inhibitory concentration (IC50) in test [2] was greater than 10 µM; in test [3], less than 100 nM. Moreover, the “indicator of pain (licking time), phase II” value in test [5] (10 to 30 minutes after formalin) is “significantly improved”. For the same compound, the “indicator of pain (licking time), phase I” value in test [5] (within 10 minutes after formalin) was “significantly improved”.

As for `COc1ccc(-c2nc(C3CCN(C(=O)N(C)O)CC3)oc2-c2ccc(OC)cc2)cc1` [Example 1, 4-(4,5-Bis(4-methoxyphenyl)oxazol-2-yl)-1-(N-hydroxy-N-methylcarbamoyl)piperidine], the ED50 in test [1] (Table 4, oral administration, comparison with similar known compound, read-out: ED50 (mg/kg) [90% confidence limit]) was 2.02 mg/kg; in test [1] (setting [6]), 2.02 mg/kg. For the same compound, in test [1] (oral administration, compared with Reference Example 78 (sulfate)), the “activity ratio (analgesic effects)” value was “at least 49 times”. Moreover, the results for the IC50 in test [2] and in test [3] were greater than 10 µM and less than 100 nM, respectively.

In the case of `COc1ccc(-c2nc(C3CCN(C(=O)N(C)O)CC3)oc2-c2ccc(Cl)cc2)cc1` [Example 20, 4-(5-(4-Chlorophenyl)-4-(4-methoxyphenyl)oxazol-2-yl)-1-(N-hydroxy-N-methylcarbamoyl)-piperidine], the ED50 in test [1] (setting [6]) was found to be 6.45 mg/kg. Also, the figures for the IC50 in test [2] and in test [3] were greater than 10 µM and less than 100 nM, respectively.

On to `COC(=O)C1(c2nc(-c3ccc(OC)cc3)c(-c3ccc(OC)cc3)o2)CCN(C(=O)N(C)O)CC1` [Example 14, Methyl 4-(4,5-bis(4-methoxyphenyl)oxazol-2-yl)-1-(N-hydroxy-N-methylcarbamoyl)-4-piperidinecarboxylate], for which the ED50 in test [1] (setting [6]) worked out at 4.17 mg/kg. Moreover, in test [4] (oral administration of 10 mg/kg), the “results of the von Frey test” value is recorded as “significantly improved”. Besides, the IC50 was greater than 10 µM in test [2] and less than 100 nM in test [3].

In the case of `COc1ccc(-c2oc(C3CCN(C(=O)N(C)O)CC3)nc2-c2ccc(Cl)cc2)cc1` [Example 12, 4-(4-(4-Chlorophenyl)-5-(4-methoxyphenyl)oxazol-2-yl)-1-(N-hydroxy-N-methylcarbamoyl)-piperidine], the ED50 in test [1] (setting [6]) stood at 2.29 mg/kg. The half-inhibitory concentration (IC50) in test [2] is greater than 10 µM; in test [3], less than 100 nM.

`COc1ccc(-n2nc(C3CCN(C(=O)N(C)O)CC3)cc2-c2ccc(C)cc2)cc1` [Example 69, 4-(1-(4-Methoxyphenyl)-5-(4-tolyl)-1H-pyrazol-3-yl)-1-(N-hydroxy-N-methylcarbamoyl)piperidine]: in test [1] (setting [6]), the ED50 was found to be 3.19 mg/kg. The half-maximal inhibitory concentration (IC50) is greater than 10 µM in test [2] and less than 100 nM in test [3].
